Measurements taken from patent US20250188082A1, “Use of Hypoxanthine Compound In Preparation of Drug For Treating Pulmonary Fibrosis” (Sichuan Yiasuo Pharmaceutical Technology Co., Ltd., priority 2022, published 2025).
Read-outs that look alike come from different tables or passages of the source.

Columns and labels:
Type in all cases: in vivo, C57BL/6 mice
[1] = test system: mycoplasma-induced pulmonary fibrosis model (MPFH strain); assay: Mycoplasma-induced pulmonary fibrosis model; conditions: 120 mg/kg/d intragastric, 14 days; for Leucocyte / Lymphocyte / Neutrophil: MPFH mycoplasma + bleomycin, once a day, from two weeks after model; for Ashcroft scores: mycoplasma + bleomycin, lung tissue HE
[2] = test system: influenza B virus-induced pulmonary fibrosis model (influenza B (H7N9) virus); conditions: 120 mg/kg/d intragastric, 14 days; for Ashcroft scores: influenza B virus + bleomycin, lung tissue HE; for IL-1β / NF-κB / TNF-α / IL-6: serum, from two weeks after model; for IL-1β / NF-κB / TNF-α: influenza B (H7N9) + bleomycin; for IL-6: influenza B + bleomycin
[3] = test system: bleomycin-induced pulmonary fibrosis model; assay: Advanced pulmonary fibrosis: bleomycin-induced model, dosing from three weeks after modelling; conditions: for Leucocyte / Lymphocyte / Neutrophil / Ashcroft scores: advanced pulmonary fibrosis, 120 mg/kg/d intragastric, 14 days, from three weeks after model; for Leucocyte / Lymphocyte / Neutrophil: blood, Day 15, twice every day; for Ashcroft scores: lung tissue HE staining; for inhibition (anti-inflammatory) effect on leucocytes, neutrophils and lymphocytes in blood: mice with advanced pulmonary fibrosis, result in words
[4] = test system: Streptococcus pneumoniae-induced pulmonary fibrosis model; assay: Streptococcus pneumoniae-induced pulmonary fibrosis model; conditions: for Leucocyte / Lymphocyte / Neutrophil / Ashcroft scores: Streptococcus pneumoniae + bleomycin, 120 mg/kg/d intragastric, 14 days; for Leucocyte / Lymphocyte / Neutrophil: blood, Day 15, 3 times every day, from one week after model; for Ashcroft scores: lung tissue HE staining; for inhibition (anti-inflammatory) effect on leucocytes, neutrophils and lymphocytes in blood: mice with Streptococcus pneumoniae-induced pulmonary fibrosis, result in words
[5] = test system: coronavirus-induced pulmonary fibrosis model (HcoV-OC43); assay: Coronavirus-induced pulmonary fibrosis model; conditions: 120 mg/kg/d intragastric, 14 days; for Ashcroft scores: coronavirus HcoV-OC43 + bleomycin, lung tissue HE; for IL-1β / IL-6 / NF-κB / TNF-α: serum, HcoV-OC43 + bleomycin, from two weeks after model
Summary of the method: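 C57BL/6 mice (22–25 g, 9 per group) were infected intranasally with HcoV-OC43 on day 1, then given intratracheal bleomycin 5 mg/kg on day 2. Two weeks later, compounds were given intragastrically at 120 mg/kg/d for 14 days. Endpoints: weight, deaths, serum NF-κB, TNF-α, IL-1 and IL-6, lung HE and Ashcroft scoring.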

[6] = test system: bleomycin-induced pulmonary fibrosis model; assay: Early pulmonary fibrosis: bleomycin-induced model, dosing from one week after modelling; conditions: for Leucocyte / Lymphocyte / Neutrophil / Ashcroft scores: early pulmonary fibrosis, 120 mg/kg/d intragastric, 14 days, from one week after model; for Leucocyte / Lymphocyte / Neutrophil: blood, Day 15, twice every day; for Ashcroft scores: lung tissue HE staining; for inhibition (anti-inflammatory) effect on leucocytes, neutrophils and lymphocytes in blood: mice with early pulmonary fibrosis, result in words

For `CCC(=O)Oc1ncnc2c1ncn2C(C)C` [Compound 12], the Leucocyte [1] was 6.12 10^9/L, the Lymphocyte [1] was 74.46 10^9/L and the Neutrophil [1] was 21.68 10^9/L. For the same molecule, the Ashcroft scores [1] was 1.12, the Ashcroft scores [2] was 1.26 and the IL-1β [2] was 27.8 pg/mL. For the same molecule, the NF-κB [2] was 32.9 pg/mL, the TNF-α [2] was 75.4 pg/mL and the IL-6 [2] was 69.7 pg/mL. For the same molecule, the Leucocyte [3] was 4.04 10^9/L, the Lymphocyte [3] was 5.65 10^9/L and the Neutrophil [3] was 1.23 10^9/L. The Ashcroft scores [3] was 1.13, the Leucocyte [4] was 7.04 10^9/L and the Lymphocyte [4] was 7.23 10^9/L. The Neutrophil [4] was 1.97 10^9/L, the Ashcroft scores [4] was 1.39 and the Ashcroft scores [5] was 1.37. For the same molecule, the IL-1β [5] was 35.8 pg/mL, the IL-6 [5] was 66.5 pg/mL and the NF-κB [5] was 27.7 pg/mL. The TNF-α [5] was 54.4 pg/mL, the Leucocyte [6] was 4.21 10^9/L and the Lymphocyte [6] was 5.24 10^9/L. The Neutrophil [6] was 1.18 10^9/L and the Ashcroft scores [6] was 1.14.

With `O=c1[nH]cnc2[nH]cnc12` [Hypoxanthine analogue A, reference compound] the Leucocyte [1] was 116.79 10^9/L, the Lymphocyte [1] was 567.15 10^9/L and the Neutrophil [1] was 234.53 10^9/L. It also gave an Ashcroft scores [1] of 6.64, an Ashcroft scores [2] of 6.26 and an IL-1β [2] of 239.9 pg/mL. For the same molecule, the NF-κB [2] was 630.5 pg/mL, the TNF-α [2] was 191.3 pg/mL and the IL-6 [2] was 194.8 pg/mL. The Leucocyte [3] was 66.48 10^9/L, the Lymphocyte [3] was 71.65 10^9/L and the Neutrophil [3] was 67.48 10^9/L. For the same molecule, the Ashcroft scores [3] was 5.88, the “inhibition (anti-inflammatory) effect on leucocytes, neutrophils and lymphocytes in blood” value (“inhibition (anti-inflammatory) effect” below) [3] was “obviously inferior” and the Leucocyte [4] was 155.12 10^9/L. For the same molecule, the Lymphocyte [4] was 90.75 10^9/L, the Neutrophil [4] was 89.99 10^9/L and the Ashcroft scores [4] was 6.12. The “inhibition (anti-inflammatory) effect” value [4] was “obviously inferior”, the Ashcroft scores [5] was 6.23 and the IL-1β [5] was 688.8 pg/mL. For the same molecule, the IL-6 [5] was 519.4 pg/mL, the NF-κB [5] was 719.1 pg/mL and the TNF-α [5] was 450.7 pg/mL. For the same molecule, the Leucocyte [6] was 52.12 10^9/L, the Lymphocyte [6] was 49.53 10^9/L and the Neutrophil [6] was 41.21 10^9/L. The Ashcroft scores [6] was 5.00 and the “inhibition (anti-inflammatory) effect” value [6] was “obviously inferior”.

With `CC(C)Oc1ncnc2c1ncn2C` [Hypoxanthine analogue B, reference compound] the Leucocyte [1] was 118.58 10^9/L, the Lymphocyte [1] was 568.05 10^9/L and the Neutrophil [1] was 233.92 10^9/L. It also gave an Ashcroft scores [1] of 6.30, an Ashcroft scores [2] of 6.21 and an IL-1β [2] of 240.6 pg/mL. The NF-κB [2] was 627.1 pg/mL, the TNF-α [2] was 190.2 pg/mL and the IL-6 [2] was 193.1 pg/mL. For the same molecule, the Leucocyte [3] was 71.35 10^9/L, the Lymphocyte [3] was 67.37 10^9/L and the Neutrophil [3] was 68.34 10^9/L. The Ashcroft scores [3] was 6.01, the “inhibition (anti-inflammatory) effect” value [3] was “obviously inferior” and the Leucocyte [4] was 156.11 10^9/L. The Lymphocyte [4] was 91.01 10^9/L, the Neutrophil [4] was 89.86 10^9/L and the Ashcroft scores [4] was 6.14. The “inhibition (anti-inflammatory) effect” value [4] was “obviously inferior”, the Ashcroft scores [5] was 6.12 and the IL-1β [5] was 560.6 pg/mL. It also gave an IL-6 [5] of 522.2 pg/mL, an NF-κB [5] of 730.1 pg/mL and a TNF-α [5] of 454.4 pg/mL. For the same molecule, the Leucocyte [6] was 49.97 10^9/L, the Neutrophil [6] was 36.88 10^9/L and the Ashcroft scores [6] was 5.39. The “inhibition (anti-inflammatory) effect” value [6] was “obviously inferior”.

With `COc1ncnc2c1ncn2C(C)C` [Hypoxanthine analogue C, reference compound] the Leucocyte ([1]; 120 mg/kg/day) was 120.98 10^9/L, the Lymphocyte ([1]; 120 mg/kg/day) was 571.34 10^9/L and the Neutrophil ([1]; 120 mg/kg/day) was 238.07 10^9/L. The Ashcroft scores ([1]; 120 mg/kg/day) was 6.41, the Ashcroft scores ([2]; 120 mg/kg/day) was 6.15 and the IL-1β ([2]; 120 mg/kg/day) was 241.9 pg/mL. For the same molecule, the NF-κB ([2]; 120 mg/kg/day) was 632.4 pg/mL, the TNF-α ([2]; 120 mg/kg/day) was 198.9 pg/mL and the IL-6 ([2]; 120 mg/kg/day) was 194.9 pg/mL. The Leucocyte ([3]; 120 mg/kg/day) was 72.55 10^9/L, the Lymphocyte ([3]; 120 mg/kg/day) was 70.88 10^9/L and the Neutrophil ([3]; 120 mg/kg/day) was 59.66 10^9/L. For the same molecule, the Ashcroft scores ([3]; 120 mg/kg/day) was 6.06, the “inhibition (anti-inflammatory) effect” value [3] was “obviously inferior” and the Leucocyte ([4]; 120 mg/kg/day) was 149.35 10^9/L. The Lymphocyte ([4]; 120 mg/kg/day) was 90.12 10^9/L, the Neutrophil ([4]; 120 mg/kg/day) was 82.11 10^9/L and the Ashcroft scores ([4]; 120 mg/kg/day) was 6.21. The “inhibition (anti-inflammatory) effect” value [4] was “obviously inferior”, the Ashcroft scores ([5]; 120 mg/kg/day) was 6.31 and the IL-1β ([5]; 120 mg/kg/day) was 530.1 pg/mL. It also gave an IL-6 ([5]; 120 mg/kg/day) of 530.9 pg/mL, an NF-κB ([5]; 120 mg/kg/day) of 729.6 pg/mL and a TNF-α ([5]; 120 mg/kg/day) of 449.1 pg/mL. The Leucocyte ([6]; 120 mg/kg/day) was 50.11 10^9/L, the Lymphocyte ([6]; 120 mg/kg/day) was 50.06 10^9/L and the Neutrophil ([6]; 120 mg/kg/day) was 37.04 10^9/L. For the same molecule, the Ashcroft scores ([6]; 120 mg/kg/day) was 5.46 and the “inhibition (anti-inflammatory) effect” value [6] was “obviously inferior”.
